In US9604964B2, “Dihydropyrazole GPR40 modulators” (BRISTOL-MYERS SQUIBB COMPANY, priority 2012, dated 2017):

molecular target: human GPR40 (Homo sapiens, UniProt O14842); assay: FDSS-based intracellular calcium assay (Human GPR40 in vitro assay); format: cell-based; set-up: 3xFLAG; expressed in transfected cells; conditions: intracellular Ca2+ response, cells expressing GPR40; read-out: hGPR40 EC50
Protocol: FDSS-based Intracellular Calcium Assay
Compounds are dissolved in DMSO and diluted to desired concentrations with assay buffer and added to the cells as 3× solution (20 μL per well). Run fluorescence/luminescence reader FDSS (Hamamatsu) to read intracellular Ca^2+ response.

Sequence of human GPR40 (O14842 whole entry): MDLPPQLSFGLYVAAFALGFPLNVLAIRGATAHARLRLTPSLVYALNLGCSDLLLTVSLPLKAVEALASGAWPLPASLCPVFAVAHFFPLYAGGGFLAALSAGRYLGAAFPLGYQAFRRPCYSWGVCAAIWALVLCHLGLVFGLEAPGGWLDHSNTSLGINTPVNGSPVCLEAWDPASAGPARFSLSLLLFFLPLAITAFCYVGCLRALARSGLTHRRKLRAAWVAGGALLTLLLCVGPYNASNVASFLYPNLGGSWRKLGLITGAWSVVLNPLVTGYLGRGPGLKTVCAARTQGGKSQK

Row | EC50 [µM] | Structure (SMILES)
1 | 2 | CC(C)CS(=O)(=O)N1CCC(Oc2ccc(N3N=C(C(F)(F)F)[C@@H](C)[C@@H]3CC(=O)O)cc2)CC1 [Example B23, 2-((4S,5S)-1-(4-((1-(isobutylsulfonyl)piperidin-4-yl)oxy)phenyl)-4-methyl-3-(trifluoromethyl)-4,5-dihydro-1H-pyrazol-5-yl)acetic acid]
2 | 2 | COCC1CN(c2cc(OC)ncc2Cl)CCC1Oc1ccc(N2N=C(C(F)(F)F)[C@@H](C)[C@@H]2CC(=O)O)cc1 (single isomer, unassigned) [Example B3, Isomer 3]
3 | 3.6 | C[C@@H]1C(C(F)(F)F)=NN(c2ccc(OC3CCN(S(=O)(=O)C4CCCC4)CC3)cc2)[C@H]1CC(=O)O [Example B24, 2-((4S,5S)-1-(4-((1-(Cyclopentylsulfonyl)piperidin-4-yl)oxy)phenyl)-4-methyl-3-(trifluoromethyl)-4,5-dihydro-1H-pyrazol-5-yl)acetic acid]
4 | 0.672 | CCOc1ccc(F)c(N2CCC(Cc3ccc(N4N=C(C(F)(F)F)[C@@H](C)[C@@H]4CC(=O)O)cc3)C(C)C2)c1 (single isomer, unassigned) [Example 3 (Isomer 4)]
5 | 4.23 | COc1ccc(F)c(N2CCCC(Oc3ccc(N4N=C(C(F)(F)F)[C@@H](C)[C@@H]4CC(=O)O)cc3)C2)c1 (mixture of isomers) [Example B26, 2-((4S,5S)-1-(4-((1-(2-fluoro-5-methoxyphenyl)piperidin-3-yl)oxy)phenyl)-4-methyl-3-(trifluoromethyl)-4,5-dihydro-1H-pyrazol-5-yl)acetic acid]
6 | 4.2 | COc1cncc(N2CCC(Oc3ccc(N4N=C(C(F)(F)F)[C@@H](C)[C@@H]4CC(=O)O)cc3)CC2)n1 [Example 53, 2-((4S,5S)-1-(4-((1-(6-methoxypyrazin-2-yl)piperidin-4-yl)oxy)phenyl)-4-methyl-3-(trifluoromethyl)-4,5-dihydro-1H-pyrazol-5-yl)acetic acid]
7 | 6.25 | C[C@@H]1C(C(F)(F)F)=NN(c2ccc(OC3CCN(c4cnc(Cl)cn4)CC3)cc2)[C@H]1CC(=O)O [Example 55, 2-((4S,5S)-1-(4-((1-(5-chloropyrazin-2-yl)piperidin-4-yl)oxy)phenyl)-4-methyl-3-(trifluoromethyl)-4,5-dihydro-1H-pyrazol-5-yl)acetic acid]
8 | 1.57 | CCOc1ccc(F)c(N2CCC(Oc3ccc(N4N=C(c5ccc(C#N)c(C#N)c5)[C@@H](C)[C@@H]4CC(=O)O)cc3)CC2)c1 [Example 96, 2-((4S,5S)-3-(3,4-dicyanophenyl)-1-(4-((1-(5-ethoxy-2-fluorophenyl)piperidin-4-yl)oxy)phenyl)-4-methyl-4,5-dihydro-1H-pyrazol-5-yl)acetic acid]
9 | 6.2 | C[C@@H]1C(C(F)(F)F)=NN(c2ccc(OC3CCN(c4cccc5c4OCCO5)CC3)cc2)[C@H]1CC(=O)O [Example B19, 2-((4S,5S)-1-(4-((1-(2,3-Dihydrobenzo[b][1,4]dioxin-5-yl)piperidin-4-yl)oxy)phenyl)-4-methyl-3-(trifluoromethyl)-4,5-dihydro-1H-pyrazol-5-yl)acetic acid]
10 | 5.04 | COc1ccc(F)c(N2C(=O)[C@@H]3C[C@H]2CC3Oc2ccc(N3N=C(C(F)(F)F)[C@@H](C)[C@@H]3CC(=O)O)cc2)c1 (stereo partly drawn) [Example 68, 2-((4S,5S)-1-(4-(((1S,4R)-2-(2-fluoro-5-methoxyphenyl)-3-oxo-2-azabicyclo[2.2.1]heptan-5-yl)oxy)phenyl)-4-methyl-3-(trifluoromethyl)-4,5-dihydro-1H-pyrazol-5-yl)acetic acid]
11 | 1.04 | C[C@@H]1C(C(F)(F)F)=NN(c2ccc(OC3CCN(c4cc5c(cc4Cl)CCO5)CC3)cc2)[C@H]1CC(=O)O [Example 4, 2-((4S,5S)-1-(4-((1-(5-chloro-2,3-dihydrobenzofuran-6-yl)piperidin-4-yl)oxy)phenyl)-4-methyl-3-(trifluoromethyl)-4,5-dihydro-1H-pyrazol-5-yl)acetic acid]
12 | 4.95 | CCOc1ccc(F)c(N2CCC(Oc3ccc(N4N=C(c5ccc(C(=O)O)cc5F)[C@@H](C)[C@@H]4CC(=O)O)cc3)CC2)c1 [Example B4, 4-((4S,5S)-5-(carboxymethyl)-1-(4-((1-(5-ethoxy-2-fluorophenyl)piperidin-4-yl)oxy)phenyl)-4-methyl-4,5-dihydro-1H-pyrazol-3-yl)-3-fluorobenzoic acid]
13 | 0.517 | COc1cc(N2CCC(Cc3ccc(N4N=C(C(F)(F)F)[C@@H](C)[C@@H]4CC(=O)O)cc3)CC2)c(Cl)cn1 [Example B10, 2-((4S,5S)-1-(4-((1-(5-chloro-2-methoxypyridin-4-yl)piperidin-4-yl)methyl)phenyl)-4-methyl-3-(trifluoromethyl)-4,5-dihydro-1H-pyrazol-5-yl)acetic acid]
14 | 3.14 | CCOc1cc(F)c(F)c(N2CCC(Oc3ccc(N4N=C(c5ccc(F)c(F)c5)[C@@H](C)[C@@H]4CC(=O)O)cc3)CC2)c1 [Example 97, 2-((4S,5S)-3-(3,4-difluorophenyl)-1-(4-((1-(5-ethoxy-2,3-difluorophenyl)piperidin-4-yl)oxy)phenyl)-4-methyl-4,5-dihydro-1H-pyrazol-5-yl)acetic acid]
15 | 0.352 | COCC1CN(c2cc(OC)ncc2Cl)CCC1Oc1ccc(N2N=C(C(F)(F)F)[C@@H](C)[C@@H]2CC(=O)O)cc1 (single isomer, unassigned) [Example B3, Isomer 1]
16 | 4.48 | C[C@@H]1C(C(F)(F)F)=NN(c2ccc(OC3CCN(c4ncc(Cl)cn4)CC3)cc2)[C@H]1CC(=O)O [Example 7, 2-((4S,5S)-1-(4-((1-(5-chloropyrimidin-2-yl)piperidin-4-yl)oxy)phenyl)-4-methyl-3-(trifluoromethyl)-4,5-dihydro-1H-pyrazol-5-yl)acetic acid]
17 | 5.81 | CCCc1cnc(N2CCC(Oc3ccc(N4N=C(C(F)(F)F)[C@@H](C)[C@@H]4CC(=O)O)cc3)CC2)nc1 [Example 5, 2-((4S,5S)-4-methyl-1-(4-((1-(5-propylpyrimidin-2-yl)piperidin-4-yl)oxy)phenyl)-3-(trifluoromethyl)-4,5-dihydro-1H-pyrazol-5-yl)acetic acid]
18 | 2.2 | COc1cc(N2CC3CCC(C2)C3Cc2ccc(N3N=C(C(F)(F)F)[C@@H](C)[C@@H]3CC(=O)O)cc2)c(Cl)cn1 (stereo partly drawn) [Example B13, 2-((4S,5S)-1-(4-(((1R,5S,8S)-3-(5-chloro-2-methoxypyridin-4-yl)-3-azabicyclo[3.2.1]octan-8-yl)methyl)phenyl)-4-methyl-3-(trifluoromethyl)-4,5-dihydro-1H-pyrazol-5-yl)acetic acid]
19 | 1.42 | C[C@@H]1C(C(F)(F)F)=NN(c2ccc(OC3CCN(c4nccc(C(F)(F)F)n4)CC3)cc2)[C@H]1CC(=O)O [Example 20, 2-((4S,5S)-4-methyl-3-(trifluoromethyl)-1-(4-((1-(4-(trifluoromethyl)pyrimidin-2-yl)piperidin-4-yl)oxy)phenyl)-4,5-dihydro-1H-pyrazol-5-yl)acetic acid]
20 | 7.38 | C[C@@H]1C(C(F)(F)F)=NN(c2ccc(CC3C4CCC3CN(C(=O)OCc3ccccc3)C4)cc2)[C@H]1CC(=O)O (stereo partly drawn) [Example B11, 2-((4S,5S)-1-(4-(((1R,5S,8S)-3-((benzyloxy)carbonyl)-3-azabicyclo[3.2.1]octan-8-yl)methyl)phenyl)-4-methyl-3-(trifluoromethyl)-4,5-dihydro-1H-pyrazol-5-yl)acetic acid]
21 | 5.79 | CCOc1ccc(F)c(N2CCC(Oc3ccc(N4N=C(C#N)C(C)C4CC(=O)O)cc3)C(C)C2)c1 (single isomer, unassigned) [Example B7, Isomer 2, 2-(3-Cyano-1-(4-((1-(5-ethoxy-2-fluorophenyl)-3-methylpiperidin-4-yl)oxy)phenyl)-4-methyl-4,5-dihydro-1H-pyrazol-5-yl)acetic acid]
22 | 0.761 | COc1cccc(N2CCC(Cc3ccc(N4N=C(C(F)(F)F)[C@@H](C)[C@@H]4CC(=O)O)cc3)CC2)c1 [Example B8, 2-((4S,5S)-1-(4-((1-(3-methoxyphenyl)piperidin-4-yl)methyl)phenyl)-4-methyl-3-(trifluoromethyl)-4,5-dihydro-1H-pyrazol-5-yl)acetic acid]
23 | 4.42 | C[C@@H]1C(C(F)(F)F)=NN(c2ccc(OC3CCN(S(=O)(=O)c4ccccc4C(F)(F)F)CC3)cc2)[C@H]1CC(=O)O [Example B25, 2-((4S,5S)-4-Methyl-3-(trifluoromethyl)-1-(4-((1-((2-(trifluoromethyl)phenyl)sulfonyl)piperidin-4-yl)oxy)phenyl)-4,5-dihydro-1H-pyrazol-5-yl)acetic acid]
24 | 3.77 | C[C@@H]1C(C(F)(F)F)=NN(c2ccc(OCC3CN(S(=O)(=O)C4CCCCC4)C3)cc2)[C@H]1CC(=O)O [Example B31, 2-((4S,5S)-1-(4-((1-(Cyclohexylsulfonyl)azetidin-3-yl)methoxy)phenyl)-4-methyl-3-(trifluoromethyl)-4,5-dihydro-1H-pyrazol-5-yl)acetic acid]

Row | Structure (SMILES) | EC50 [µM]
25 | C[C@@H]1C(C(F)(F)F)=NN(c2ccc(OCC3CN(C(=O)OC(C)(C)C)C3)cc2)[C@H]1CC(=O)O [Example B30, 2-((4S,5S)-1-(4-((1-(tert-Butoxycarbonyl)azetidin-3-yl)methoxy)phenyl)-4-methyl-3-(trifluoromethyl)-4,5-dihydro-1H-pyrazol-5-yl)acetic acid] | 2.77
26 | C[C@@H]1C(C(F)(F)F)=NN(c2ccc(OC3CCN(C(=O)OC(C)(C)C)CC3)cc2)[C@H]1CC(=O)O [Example 15, 2-((4S,5S)-1-(4-((1-(tert-butoxycarbonyl)piperidin-4-yl)oxy)phenyl)-4-methyl-3-(trifluoromethyl)-4,5-dihydro-1H-pyrazol-5-yl)acetic acid] | 1.72
27 | CCOc1ccc(F)c(N2CCC(Oc3ccc(N4N=C(C(F)(F)F)[C@@H](C)[C@@H]4CC(=O)O)cc3)C(OC)C2)c1 (single isomer, unassigned) [Example 31 (Isomer 2)] | 0.91
